Assay results taken from patent publication US20200009173A1, “TRIAZOLE-CONTAINING MACROLIDES AND OPHTHALMIC USES THEREFOR” (Tetard, Inc., priority 2017, published 2020).
≈ marks a conversion by molar mass, not a printed value. Read-outs that look alike come from different tables or passages of the source.

Assays:
Streptococcus pneumoniae = assay: MIC, Streptococcus pneumoniae (150 strains); format: cell-based
CA-MRSA = assay: MIC, CA-MRSA; format: cell-based, Staphylococcus aureus; conditions: N = 30
Mycobacterium avium = assay: MIC, Mycobacterium avium; format: cell-based; conditions: N = 30
Mycoplasma hominis = assay: MIC, Mycoplasma hominis; format: cell-based; conditions: N = 13
[1] = system: Viridans group streptococci; assay: MIC, Viridans group streptococci; format: cell-based; conditions: N = 51
[2] = system: Streptococcus pyogenes (a); assay: MIC, Streptococcus pyogenes (a); format: cell-based; conditions: N = 407
Streptococcus agalactiae = assay: MIC, Streptococcus agalactiae; format: cell-based; conditions: N = 535
[3] = system: phagocytized L. pneumophila; format: cell-based
CXCL8 = CXCL8 (IL-8) production in LPS-stimulated PMA-differentiated U937 cells (ELISA); format: cell-based, human
Protocol: EXAMPLE. […] Cells. The human monocytic cell line U937 was obtained from the American Type Culture Collection (ATCC, Rockville, Md.). PBMCs from COPD patients were obtained from Brompton hospital and separated by AccuSPIN (Sigma-Aldrich). […] U937 cells were differentiated into adherent macrophage-like morphology by exposure to PMA (50 ng/ml) for 48 h in complete growth medium. Cell viability was assessed microscopically by trypan blue staining. Cell toxicity was determined by MTT assay as needed. This study was approved by the ethics committee of the Royal Brompton Hospitals, and all subjects gave written informed consent. Cytokine ELISA. TNFα and IL-8 concentrations in the supernatant of cell cultures were determined by sandwich ELISA according to the manufacturer's instructions (R&D Systems Europe, Abingdon, UK). Statistical analysis. The results were expressed as the mean±SEM. Comparisons of data in two groups were performed using the Student's t test or the Wilcoxon signed rank test. Multiple comparisons were made by one-way ANOVA with post hoc test (Dunnett's) as appropriate. The difference was considered significant at p<0.05. […] Anti-inflammatory effects of solithromycin in U937 cells.

[4] = Corneal permeability, Franz-Cell Diffusion Apparatus; format: in vitro ADME; conditions: bovine (calf), pH 7
Protocol: EXAMPLE. Corneal Permeability. Corneal permeability is determined using conventional protocols. Briefly, corneal permeability is determined on freshly excised bovine (calf) cornea using a Franz-Cell Diffusion Apparatus generally with n=3/group. Freshly excised calf cornea are stored until use in hydrating solution containing glutathione and buffer. The Apparatus includes a donor chamber on the top where a predetermined volume of the formulation is pipetted and a jacketed receptor cell with a sampling side arm. The joint between the donor and receptor cell is upward-convex, mimicking the shape of the cornea. The corneal membrane is placed on the ball joint with the cornea facing the donor chamber. The Apparatus is clamped to secure the cells with the donor and receptor chambers aligned. […] The volume is recorded. […] Test samples are added in rapid succession by depositing 200 μL of the formulation into each donor chamber using a calibrated pipet and the times recorded. […] Flux can be calculated by the formula: J=Q/(A·t), where Q is the quantity (micrograms) of compound traversing the membrane in time t (minutes), and A is the area of exposed membrane in cm^2. […] After completion of the diffusion, corneas are weighed to determine the quantity of bound test compound in the cornea, and the corneal thicknesses of each cornea is measured at the point of diffusion (the center) using Vernier calipers. […]

log P = format: physicochemical
Protocol: Formulated compounds are tested for their transverse diffusive ability through the membrane. Diffusion through biological membranes is directly correlated to the formulation excipients, its physical state (suspension, solution, emulsion, etc.) and its log P. […] For compounds with log P>3, the compound typically permeates the lipid epithelium of the cornea, only to be hindered by the hydrophilic stroma. For an indication like blepharitis, high corneal concentrations achieved with repeat dosing will result in a drug depot, acting like a sustained release system.

[5] = speed of uptake and ultimate tissue concentration

Structure (SMILES): CC[C@H]1OC(=O)[C@@](C)(F)C(=O)[C@H](C)[C@@H](O[C@@H]2O[C@H](C)C[C@H](N(C)C)[C@H]2O)[C@](C)(OC)C[C@@H](C)C(=O)[C@H](C)[C@H]2N(CCCCn3cc(-c4cccc(N)c4)nn3)C(=O)O[C@]12C [CEM-101, solithromycin]
- MIC90 (Streptococcus pneumoniae; N = 150): 0.25 µg/mL (≈ 0.296 µM)
- MIC Range (Streptococcus pneumoniae; N = 150): ≤0.008 to 0.5 µg/mL
- MIC90 (Streptococcus pneumoniae; Streptococcus pneumoniae, 150 strains, read-out: MIC90): 0.25 µg/mL (≈ 0.296 µM)
- MIC50 (Streptococcus pneumoniae; Streptococcus pneumoniae, N = 150): 0.015 µg/mL (≈ 0.0178 µM)
- MIC Range (CA-MRSA): 0.06 to 0.12 µg/mL
- MIC50 (CA-MRSA; Staphylococcus aureus, MRSA): 0.12 µg/mL (≈ 0.142 µM)
- MIC90 (CA-MRSA; Staphylococcus aureus, MRSA): 0.12 µg/mL (≈ 0.142 µM)
- MIC50 (Mycobacterium avium; Mycobacterium avium): 1 µg/mL (≈ 1.18 µM)
- MIC90 (Mycobacterium avium; Mycobacterium avium): 1 µg/mL (≈ 1.18 µM)
- MIC Range (Mycobacterium avium): 1 µg/mL (≈ 1.18 µM)
- MIC50 (Mycoplasma hominis; Metamycoplasma hominis): 0.004 µg/mL (≈ 0.00473 µM)
- MIC90 (Mycoplasma hominis; Metamycoplasma hominis): 0.008 µg/mL (≈ 0.00947 µM)
- MIC Range (Mycoplasma hominis): 0.002 to 0.008 µg/mL
- MIC50 [1]: ≤ 0.008 µg/mL
- MIC90 [1]: 0.06 µg/mL (≈ 0.071 µM)
- MIC Range [1]: ≤0.008-0.12 ^ μg/mL
- MIC Range [2]: ≤0.03-0.5 ^ μg/mL
- MIC50 ([2]; Streptococcus pyogenes): ≤ 0.03 µg/mL
- MIC90 ([2]; Streptococcus pyogenes): ≤ 0.03 µg/mL
- MIC Range (Streptococcus agalactiae): ≤0.03-0.5 ^ μg/mL
- MIC50 (Streptococcus agalactiae; Streptococcus agalactiae): ≤ 0.03 µg/mL
- MIC90 (Streptococcus agalactiae; Streptococcus agalactiae): ≤ 0.03 µg/mL
- potency relative to azithromycin [3]: 100 fold
- IC50 (CXCL8; Homo sapiens, U-937, LPS, PMA-differentiated U937 cells, read-out: IC50 on CXCL8 release): 78.2 ± 9.5 µM
- effect on CXCL8 production (CXCL8; at 100 μM): significantly inhibited
- concentration in receptor fluid (therapeutically effective) ([4]; 1 h): ≥ 1000 ng/mL
- time after administration at which drug was observed in receptor fluid [4]: ≤ 1 h
- logP (log P): 4.2
- tissue distribution relative to AZI [5]: 10 fold
